Experimental data: patent US20140023611A1 (priority 2010, published 2014)

target: T1, rat NaP2b (SLC34A2) (Rattus norvegicus, UniProt Q9JJ09); test: Inhibition of NaP2b-mediated Pi (33P) uptake in transfected HEK293 cells, rat NaP2b; assay type: cell-based; details: 33P Pi uptake, 0.1 mM phosphate, value given as pIC50 range
T1 construct: host or cells: HEK293
T1 sequence (Q9JJ09 1-695): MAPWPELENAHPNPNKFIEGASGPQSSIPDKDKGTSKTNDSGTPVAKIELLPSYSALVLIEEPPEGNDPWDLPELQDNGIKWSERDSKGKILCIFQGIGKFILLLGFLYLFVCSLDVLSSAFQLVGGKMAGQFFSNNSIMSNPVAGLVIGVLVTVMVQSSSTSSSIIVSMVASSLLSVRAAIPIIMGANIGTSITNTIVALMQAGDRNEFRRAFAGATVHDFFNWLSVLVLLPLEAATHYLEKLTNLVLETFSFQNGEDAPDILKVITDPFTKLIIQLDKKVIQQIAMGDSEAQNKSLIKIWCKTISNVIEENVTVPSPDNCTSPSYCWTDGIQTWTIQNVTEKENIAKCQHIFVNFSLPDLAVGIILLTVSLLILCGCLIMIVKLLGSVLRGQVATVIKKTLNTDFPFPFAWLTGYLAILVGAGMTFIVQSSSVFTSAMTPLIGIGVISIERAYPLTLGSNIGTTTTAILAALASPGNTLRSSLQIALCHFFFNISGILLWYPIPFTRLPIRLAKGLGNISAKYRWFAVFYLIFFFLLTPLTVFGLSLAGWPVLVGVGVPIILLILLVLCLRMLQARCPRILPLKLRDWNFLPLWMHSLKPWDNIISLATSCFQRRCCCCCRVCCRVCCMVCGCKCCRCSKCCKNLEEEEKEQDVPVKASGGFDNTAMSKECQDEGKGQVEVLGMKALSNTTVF
How it was run: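 HEK293 cells were transiently transfected with NaP2b cDNA using Lipofectamine and grown near confluence. Compounds were tested at twelve concentrations from 0.1 nM to 30 uM in duplicate, and 33P-phosphate uptake was counted by scintillation after lysis. Results are expressed as pIC50.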

Compared with `O=C(O)c1cccc(CSCc2cccc(C(=O)Nc3ccc(N4CCCCC4)cc3-c3cc(C(=O)NCc4cccc(C(F)(F)F)c4)ccn3)c2)c1` [Example 9.3, 3-(((3-((4-(Piperidin-1-yl)-2-(4-((3-(trifluoromethyl)benzyl)carbamoyl)pyridin-2-yl)phenyl)carbamoyl)benzyl)thio)methyl)benzoic acid], `COCCNC(=O)c1cccc(SCc2cccc(C(=O)Nc3ccc(N4CCCCC4)cc3-c3cc(C(=O)NCc4cccc(C(F)(F)F)c4)ccn3)c2)c1` [Example 10.5] is higher in IC50: 1 to 7.94 µM for the first, 10 to 31.6 µM for the second. The first is the more potent here.

`CN1CCC(N(C)C(=O)c2cccc(SCc3cccc(C(=O)Nc4ccc(N5CCCCC5)cc4-c4cc(C(=O)NCc5cccc(C(F)(F)F)c5)ccn4)c3)c2)CC1` [Example 10.2] and `CN1CCC(NC(=O)c2cccc(SCc3cccc(C(=O)Nc4ccc(N5CCCCC5)cc4-c4cc(C(=O)NCc5cccc(C(F)(F)F)c5)ccn4)c3)c2)CC1` [Example 10.4] fall in the same range of IC50: 10 to 31.6 µM for the first, 10 to 31.6 µM for the second.

First: CN1CCN(C(=O)c2cccc(SCc3cccc(C(=O)Nc4ccc(N5CCCCC5)cc4-c4cc(C(=O)NCc5cccc(C(F)(F)F)c5)ccn4)c3)c2)CC1 [Example 10.3]
Second: CN(CCN1CCOCC1)C(=O)c1cccc(SCc2cccc(C(=O)Nc3ccc(N4CCCCC4)cc3-c3cc(C(=O)NCc4cccc(C(F)(F)F)c4)ccn3)c2)c1 [Example 10.7]
The IC50 of the first is higher: 10 to 31.6 µM for the first, 1 to 7.94 µM for the second. The second is the more potent here.

First: O=C(NCCN1CCOCC1)c1cccc(SCc2cccc(C(=O)Nc3ccc(N4CCCCC4)cc3-c3cc(C(=O)NCc4cccc(C(F)(F)F)c4)ccn3)c2)c1 [Example 10.6]
Second: CN(Cc1cccc(C(=O)Nc2ccc(N3CCCCC3)cc2-c2cc(C(=O)NCc3cccc(C(F)(F)F)c3)ccn2)c1)C(=O)CN1CCOCC1 [Example 42, 2-(2-(3-((N-Methyl-2-morpholinoacetamido)methyl)benzamido)-5-(piperidin-1-yl)phenyl)-N-(3-(trifluoromethyl)benzyl)isonicotinamide]
The IC50 of the first is lower: 1 to 7.94 µM for the first, 10 to 31.6 µM for the second.

`CCN(CC)CCN(C)C(=O)c1cccc(SCc2cccc(C(=O)Nc3ccc(N4CCCCC4)cc3-c3cc(C(=O)NCc4cccc(C(F)(F)F)c4)ccn3)c2)c1` [Example 10.8] and `CN(CCN1CCN(C(=O)OC(C)(C)C)CC1)Cc1cccc(C(=O)Nc2ccc(N3CCCCC3)cc2-c2cc(C(=O)NCc3cccc(C(F)(F)F)c3)ccn2)c1` [Example 38, Tert-butyl 4-(2-(methyl(3-((4-(piperidin-1-yl)-2-(4-((3-(trifluoromethyl)benzyl)-carbamoyl)pyridin-2-yl)phenyl)carbamoyl)benzyl)amino)ethyl)piperazine-1-carboxylate] fall in the same range of IC50: 10 to 31.6 µM for the first, 10 to 31.6 µM for the second.

First: CN(CCN1CCOCC1)C(=O)c1cccc(C(=O)Nc2ccc(N3CCCCC3)cc2-c2cc(C(=O)NCc3cccc(C(F)(F)F)c3)ccn2)n1 [Example 11.1, N2-Methyl-N2-(2-morpholinoethyl)-N6-(4-(piperidin-1-yl)-2-(4-((3-(trifluoromethyl)benzyl)carbamoyl)pyridin-2-yl)phenyl)pyridine-2,6-dicarboxamide]
Second: COc1c(C(=O)Nc2ccc(N3CCCCC3)cc2-c2cc(C(=O)NCc3cccc(C(F)(F)F)c3)ccn2)cccc1C(=O)N(C)CCN1CCOCC1 [Example 11.3, 2-Methoxy-N1-methyl-N1-(2-morpholinoethyl)-N3-(4-(piperidin-1-yl)-2-(4-((3-(trifluoromethyl)benzyl)carbamoyl)pyridin-2-yl)phenyl)isophthalamide]
The IC50 of the first is lower: 1 to 7.94 µM for the first, 10 to 31.6 µM for the second. The first is the more potent here.

First: Cc1cc(C(=O)Nc2ccc(N3CCCCC3)cc2-c2cc(C(=O)NCc3cccc(C(F)(F)F)c3)ccn2)cc(C(=O)N(C)CCN2CCOCC2)c1 [Example 11.2, N1,5-Dimethyl-N1-(2-morpholinoethyl)-N3-(4-(piperidin-1-yl)-2-(4-((3-(trifluoromethyl)benzyl)carbamoyl)pyridin-2-yl)phenyl)isophthalamide]
Second: COc1cc(C(=O)Nc2ccc(N3CCCCC3)cc2-c2cc(C(=O)NCc3cccc(C(F)(F)F)c3)ccn2)cc(C(=O)N(C)CCN2CCOCC2)c1 [Example 11.4, 5-Methoxy-N1-methyl-N1-(2-morpholinoethyl)-N3-(4-(piperidin-1-yl)-2-(4-((3-(trifluoromethyl)benzyl)carbamoyl)pyridin-2-yl)phenyl)isophthalamide]
The IC50 of the first is lower: 1 to 7.94 µM for the first, 10 to 31.6 µM for the second.

`CN(CCOCCOCCOCCC(=O)O)Cc1cccc(C(=O)Nc2ccc(N3CCCCC3)cc2-c2cc(C(=O)NCc3cccc(C(F)(F)F)c3)ccn2)c1` [Example 43, 2-Methyl-1-(3-((4-(piperidin-1-yl)-2-(4-((3-(trifluoromethyl)benzyl)carbamoyl)pyridin-2-yl)phenyl)carbamoyl)phenyl)-5,8,11-trioxa-2-azatetradecan-14-oic acid] and `CN(CCOCCOCCOCCC(=O)O)Cc1cccc(C(=O)Nc2ccc(N3CCCCC3)cc2-c2cc(C(=O)NCc3cccc(C(F)(F)F)c3)ccn2)n1` [Example 54, 2-Methyl-1-(6-((4-(piperidin-1-yl)-2-(4-((3-(trifluoromethyl)benzyl)carbamoyl)pyridin-2-yl)phenyl)carbamoyl)pyridin-2-yl)-5,8,11-trioxa-2-azatetradecan-14-oic acid] fall in the same range of IC50: 10 to 31.6 µM for the first, 10 to 31.6 µM for the second.

First: CC(=O)N[C@@H]1CCN(Cc2cccc(C(=O)Nc3ccc(N4CCCCC4)cc3-c3cc(C(=O)NCc4cccc(C(F)(F)F)c4)ccn3)n2)C1 [Example 55, (R)-6-((3-Acetamidopyrrolidin-1-yl)methyl)-N-(4-(piperidin-1-yl)-2-(4-((3-(trifluoromethyl)benzyl)carbamoyl)pyridin-2-yl)phenyl)picolinamide 2,2,2-trifluoroacetate]
Second: CC(=O)N[C@H]1CCN(Cc2cccc(C(=O)Nc3ccc(N4CCCCC4)cc3-c3cc(C(=O)NCc4cccc(C(F)(F)F)c4)ccn3)n2)C1 [Example 56, (S)-6-((3-Acetamidopyrrolidin-1-yl)methyl)-N-(4-(piperidin-1-yl)-2-(4-((3-(trifluoromethyl)benzyl)carbamoyl)pyridin-2-yl)phenyl)picolinamide]
The IC50 of the first is lower: 1 to 7.94 µM for the first, 10 to 31.6 µM for the second. The first is the more potent here.

Compared with `CC(=O)NC1CCN(Cc2cccc(C(=O)Nc3ccc(N4CCCCC4)cc3-c3cc(C(=O)NCc4cccc(C(F)(F)F)c4)ccn3)n2)CC1` [Example 57, 6-((4-Acetamidopiperidin-1-yl)methyl)-N-(4-(piperidin-1-yl)-2-(4-((3-(trifluoromethyl)benzyl)carbamoyl)pyridin-2-yl)phenyl)picolinamide], `CC(=O)N1CCN(Cc2cccc(C(=O)Nc3ccc(N4CCCCC4)cc3-c3cc(C(=O)NCc4cccc(C(F)(F)F)c4)ccn3)n2)CC1` [Example 58, 6-((4-Acetylpiperazin-1-yl)methyl)-N-(4-(piperidin-1-yl)-2-(4-((3-(trifluoromethyl)benzyl)carbamoyl)pyridin-2-yl)phenyl)picolinamide] is lower in IC50: 10 to 31.6 µM for the first, 1 to 7.94 µM for the second. The second is the more potent here.

First: CC(=O)N1CCCN(Cc2cccc(C(=O)Nc3ccc(N4CCCCC4)cc3-c3cc(C(=O)NCc4cccc(C(F)(F)F)c4)ccn3)n2)CC1 [Example 59, 6-((4-Acetyl-1,4-diazepan-1-yl)methyl)-N-(4-(piperidin-1-yl)-2-(4-((3-(trifluoromethyl)benzyl)carbamoyl)pyridin-2-yl)phenyl)picolinamide]
Second: CC(=O)N1CCN(CCN(C)Cc2cccc(C(=O)Nc3ccc(N4CCCCC4)cc3-c3cc(C(=O)NCc4cccc(C(F)(F)F)c4)ccn3)n2)CC1 [Example 60, 6-(((2-(4-Acetylpiperazin-1-yl)ethyl)(methyl)amino)methyl)-N-(4-(piperidin-1-yl)-2-(4-((3-(trifluoromethyl)benzyl)carbamoyl)pyridin-2-yl)phenyl)picolinamide]
The IC50 of the first is lower: 1 to 7.94 µM for the first, 10 to 31.6 µM for the second. The first is the more potent here.

`CN1CCN(CCN(C)Cc2cccc(C(=O)Nc3ccc(N4CCCCC4)cc3-c3cc(C(=O)NCc4cccc(C(F)(F)F)c4)ccn3)n2)CC1` [Example 61, 6-((Methyl(2-(4-methylpiperazin-1-yl)ethyl)amino)methyl)-N-(4-(piperidin-1-yl)-2-(4-((3-(trifluoromethyl)benzyl)carbamoyl)pyridin-2-yl)phenyl)picolinamide] and `CN(CCN1CCN(S(C)(=O)=O)CC1)Cc1cccc(C(=O)Nc2ccc(N3CCCCC3)cc2-c2cc(C(=O)NCc3cccc(C(F)(F)F)c3)ccn2)n1` [Example 62, 6-((Methyl(2-(4-(methylsulfonyl)piperazin-1-yl)ethyl)amino)methyl)-N-(4-(piperidin-1-yl)-2-(4-((3-(trifluoromethyl)benzyl)carbamoyl)pyridin-2-yl)phenyl)picolinamide] fall in the same range of IC50: 10 to 31.6 µM for the first, 10 to 31.6 µM for the second.

Work on `COCCNC(=O)N1CCN(CCN(C)Cc2cccc(C(=O)Nc3ccc(N4CCCCC4)cc3-c3cc(C(=O)NCc4cccc(C(F)(F)F)c4)ccn3)n2)CC1` [Example 63, N-(2-Methoxyethyl)-4-(2-(methyl((6-((4-(piperidin-1-yl)-2-(4-((3-(trifluoromethyl)benzyl)carbamoyl)pyridin-2-yl)phenyl)carbamoyl)pyridin-2-yl)methyl)amino)ethyl)piperazine-1-carboxamide] yielded an IC50 of 1 to 7.94 µM.
